These results are taken from patent US4978665A, “3(2H)pyridazinone, and antagonistic agent against SRS-A containing it” (Nissan Chemical Industries Ltd., priority 1987, dated 1990).

One data set deals with SRS-A. Kind of data set: Effect on anaphylactic bronchoconstriction mediated by endogeneously liberated SRS-A in passively sensitized guinea-pig (in vivo test). To be noted: for Inhibition (%) of bronchoconstriction: 2 hrs before EA challenge; for inhibitory effects over the control (in words): oral administration, doses of Table 3, P<0.05. An excerpt: (§1) SRS-A is a mixture of leukotriene C4 (hereinafter referred to as LTC4), leukotriene D4 (hereinafter referred to as LTD4), leukotriene E4 (hereinafter referred to as LTE4) and the like. Accordingly, antagonistic activities against SRS-A can be evaluated by one of the following two test methods:
Effect on anaphylactic bronchoconstriction mediated by endogeneously liberated SRS-A in passively sensitized guinea-pig
Male guinea-pigs (350-450 g) were passively sensitized with intravenous (i.v.) injection of 0.125 ml rabbit anti-EA (egg albumin) serum (Capple Laboratories) 1 to 2 days preceding the experiment. Antigen-induced anaphylactic bronchoconstrictions mediated by endogeneously liberated SRS-A were measured by modified method of Konzett and Rossler (Arch. Exp. Path. Pharmak., 195, 71, 1940). Sensitized guinea-pigs were anaesthetized with intraperitoneal injection of urethane (1.5 g/kg). The right jugular vein was cannulated for the administration of the all agents and trachea was cannulated to record total pulmonary resistance. Guinea-pigs were artificially ventilated by a small animal respirator (Shinano, Model SN-480-7) set at a stroke volume of 4.5 ml and a rate of 50 breaths per min. The change in pulmonary resistance was measured with a pressure transducer (Nihon Kohden, Model TP-602T) connected to a T-tube on the tracheal cannula. The increase in air overflow volume was expressed as a percentage of the maximum bronchoconstriction obtained by clamping off the trachea. Following surgical preparation, the animals were pretreated with indomethacin (2 mg/kg, 10 min), pyrilamine (2 mg/kg, 6 min) and propranolol (0.1 mg/kg, 5 min) prior to the EA challenge (0.2 mg/kg). All test compounds were administered orally 2 hrs before the EA challenge. Inhibition (%) of bronchoconstriction was determined as follows: Inhibition (%)=(1.0 - % maximum bronchoconstriction in test/% maximum bronchoconstriction in control)×100. The maximum bronchoconstriction was 62±6% (Mean±S.E.M; n=6) and the number of test animals was 5-6.

Data set [1] can be described thus: Acute toxicity test (lethal ratio, oral). Type of data set: in vivo, CD-1(ICR) strain male mice. To be noted: 1200 mg/kg oral; 7 days after administration; experimental number 5. The procedure: The lethal ratio was determined in CD-1(ICR) strain male mice (5 weeks old) at 7 days after the oral administration of test compounds.
The test system of a further data set is LTD4. Kind of data set: LTD4 antagonism in guinea-pig trachea (in vitro test). In kind it is cell-based. To be noted: Cavia porcellus, 0.5 h, LTD4 2×10^-8 g/ml, isolated guinea-pig trachea; for inhibition at 1 µg/mL: 10^-6 g/ml test compound. The procedure: as §1
LTD4 antagonism in guinea-pig trachea
Antagonism for LTD4 was determined in isolated male guinea-pig (300-400 g) trachea prepared as spiral strip. Tracheal preparations were suspended under 1 g tension in 10 ml organ baths containing 5 μM of indomethacin and they were incubated for 1 hr prior to use. Contractile responses to LTD4 (2×10^-8 g/ml) were obtained after the maximal response to histamine (10^- 4 M). Test compounds dissolved in 100% dimethyl sulfoxide were added to the organ baths (final concentration of 10^-6 g/ml or 10^-7 g/ml) 30 min prior to LTD4 addition, and then contractile responses to LTD4 were compared with those of control which was obtained from a paired trachea in the absence of test compounds. LTD4 -induced contractions were expressed as a percentage of the maximal response to histamine. The antagonism was determined as follows:
Antagonism (%)=(1.0 - % contraction in test/% contraction in control)×100
In parenthesis in Table 2, LTD4 antagonisms by test compounds at a concentration of 10^-7 g/ml are shown.

As for `CCCCOc1cc(CNc2c(OCC)n[nH]c(=O)c2Cl)ccc1OC` [Compound No. 68, 4-chloro-5-(3-n-butoxy-4-methoxybenzylamino)-6-ethoxy-3(2H)pyridazinone], the results for the “Inhibition (%) of bronchoconstriction” value in the data set on SRS-A (10 mg/kg orally) and in the data set with SRS-A (30 mg/kg orally) were 63% and 51%, respectively. For the same compound, the “inhibitory effects over the control (in words)” value with SRS-A was “significant inhibitory effects”. Further, the “Lethal ratio: Death number” value in data set [1] is listed as 0. The compound further had an inhibition at 1 µg/mL with LTD4 of 92%.

Turning to `CCCCOc1cc(CNc2c(OC(C)C)n[nH]c(=O)c2Cl)ccc1OC` [Compound No. 69], the “Inhibition (%) of bronchoconstriction” value in the data set with SRS-A (30 mg/kg orally) stood at 52%. In addition, in the data set with SRS-A, the “inhibitory effects over the control (in words)” value is given as “significant inhibitory effects”. For the same compound, in data set [1], the “Lethal ratio: Death number” value is reported as 0. In the data set on LTD4, the inhibition at 1 µg/mL is 100%. In addition, in the data set with LTD4 (10^-7 g/ml test compound, read-out: LTD4 Antagonism (%) (in parenthesis)), the inhibition at 0.1 µg/mL is 83%.
